The compounds below were run against T1, smooth muscle strips of the urinary bladder (Cavia porcellus, UniProt H0W1Z3) (assay: Functional in vitro study: antimuscarinic activity (antagonism of carbachol contraction) on urinary bladder strips). Settings: not given.
T1 construct: Smooth muscle strips of the urinary bladder and ileum (longitudinal muscle only) were dissected; from tissue; host or cells: guinea pig urinary bladder smooth muscle strips
Design: species or system guinea pig
Protocol: (§1) Male guinea pigs, weighing about 300 g, were killed by a blow on the neck and exsanguinated. Smooth muscle strips of the urinary bladder and ileum (longitudinal muscle only) were dissected in a Krebs-Henseleit solution (pH 7.4). The strip preparations were then vertically mounted between two hooks in thermostatically controlled (37° C.) organ baths (5 mL). One of the hooks was adjustable and connected to a force transducer (FT 03, Grass Instruments). The Krebs-Henseleit solution was continuously bubbled with carbogen gas (93.5% O2 /6.5% CO2) to maintain pH at 7.4. Isometric tension was recorded by a Grass Polygraph (model 79D). A resting tension of approximately 5 mN was initially applied on each muscle strip and the preparations were allowed to stabilize for at least 45 min. The resting tension was repeatedly adjusted and the preparations were washed several times during the stabilization period.
(§2) The urinary bladder strips were used for evaluation of antimuscarinic activity and the ileal preparations for studies of muscarinic activity. Carbachol (carbamylcholine chloride) was used as the standard agonist. Concentration-response curves to agonists were generated either by the cumulative dose-response technique (bladder strip) or by the addition of single agonist concentrations (ileal preparations). In the latter case, the preparations were washed and allowed to rest between each concentration of agonist. EC50 values were graphically determined.
In studies of antagonism, a control concentration-response curve to carbachol was generated by cumulative addition of carbachol to the bladder strip (i.e., stepwise increase of the agonist concentration until the maximal contractile response was reached), followed by washing out and a resting period of at least 15 min. before a fix concentration of the test compound (antagonist) was added to the organ-bath. After 60 min. of incubation, a second cumulative concentration-response curve to carbachol was generated. Responses were expressed as percent of the maximal response to carbachol. EC50 -values for carbachol in the absence (control) and presence of antagonist were graphically derived and dose ratios (r) were calculated. Dissociation constants, Kb, for the antagonists were then calculated using the following equation (1), where [A] is the concentration of test compound.

T1 sequence (H0W1Z3 1-590): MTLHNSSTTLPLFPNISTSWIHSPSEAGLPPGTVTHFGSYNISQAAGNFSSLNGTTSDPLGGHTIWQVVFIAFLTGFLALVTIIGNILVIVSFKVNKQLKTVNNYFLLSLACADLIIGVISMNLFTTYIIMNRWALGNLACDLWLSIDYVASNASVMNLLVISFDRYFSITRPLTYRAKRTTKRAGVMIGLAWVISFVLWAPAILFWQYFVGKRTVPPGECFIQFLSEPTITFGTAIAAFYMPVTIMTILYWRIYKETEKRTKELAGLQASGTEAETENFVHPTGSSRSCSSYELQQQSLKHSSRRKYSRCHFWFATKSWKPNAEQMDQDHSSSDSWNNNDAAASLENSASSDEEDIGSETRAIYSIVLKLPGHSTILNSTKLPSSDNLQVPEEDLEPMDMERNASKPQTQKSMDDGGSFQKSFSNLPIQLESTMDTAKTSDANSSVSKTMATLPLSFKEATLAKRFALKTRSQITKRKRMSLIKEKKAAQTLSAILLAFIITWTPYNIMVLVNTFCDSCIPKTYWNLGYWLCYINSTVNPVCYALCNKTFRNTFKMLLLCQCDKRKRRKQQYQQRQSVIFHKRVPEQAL

SMILES | Kb [µM]
CCc1ccc(C2(O)CN3CCC2CC3)o1 (stereo not drawn) [Example 8, 3-(5-Ethyl-2-furyl)quinuclidin-3-ol] | 6.7
Cc1ccc(C2(O)CN3CCC2CC3)o1 (stereo not drawn) [Example 4, 3-(5-Methyl-2-furyl)quinuclidin-3-ol] | 1.2
Cc1ccc(C2(O)CN3CCC2CC3)s1 (stereo not drawn) [Example 6, 3-(5-Methylthienyl)quinuclidin-3-ol] | 23

Same assay, conditions: read-out: Kb (dissociation constant for the antagonist)

SMILES | Kb [µM]
C1=C(c2ccc(-c3ccccc3)o2)C2CCN1CC2 [Example 29, 3-(5-Phenylfuran-2-yl)quinuclidin-2-ene] | 1.02
COC(=O)c1ccc(C2=CN3CCC2CC3)o1 [Example 31, 3-(2-Methoxycarbonyl-5-furyl)-quinuclidin-2-ene] | 2.6
Cc1ccc(C2=CN3CCC2CC3)s1 [Example 19, 3-(5-methyl-2-thienyl)quinuclidin-2-ene] | 0.32
C1=C(c2occc2-c2ccccc2)C2CCN1CC2 [Example 27, 3-(3-Phenylfuran-2-yl)quinuclidin-2-ene] | 0.0027
CCc1ccc(C2=CN3CCC2CC3)o1 [Example 21, 3-(5-Ethyl-2-furyl)quinuclidin-2-ene] | 0.031
Cc1ccc(C2=CN3CCC2CC3)o1 [Example 17, 3-(5-Methyl-2-furyl)quinuclidin-2-ene] | 0.061

Same assay, conditions: read-out: Kb (dissociation constant for the antagonist); guinea pig urinary bladder strip; antagonism of carbachol; 60 min incubation; Kb=[A]/r-1

SMILES | Kb [µM]
OC1(c2occc2Br)CN2CCC1CC2 (stereo not drawn) [Example 7, 3-(3-Bromo-2-furyl)quinuclidin-3-ol] | 11

Each compound was assayed on ileum (longitudinal muscle) (assay: Functional in vitro study: muscarinic (agonistic) activity on ileal preparations). Settings: Cavia porcellus, guinea pig ileum, read-out: agonistic effect on ileum in relation to maximal carbachol response (Emax).
Protocol: as §1
as §2, with “In the latter case, the preparations were washed and allowed to rest between each concentration of agonist.” left out, “determined. […]” for “determined.”

SMILES | Emax at 500 µM [%]
COC(=O)c1ccc(C2=CN3CCC2CC3)o1 [Example 31, 3-(2-Methoxycarbonyl-5-furyl)-quinuclidin-2-ene] | 21
Cc1ccc(C2=CN3CCC2CC3)s1 [Example 19, 3-(5-methyl-2-thienyl)quinuclidin-2-ene] | 10

From patent publication US5599937A, “Heteroaromatic quinuclidinenes, their use and preparation” (Pharmacia AB, priority 1992, dated 1997)
